pIC50: −log10 of the molar value.
Tests used:
Assay in all cases: cells
[1] = system: CaR-1; format: functional, cell-based, Homo sapiens; conditions: Homo sapiens, CaR-1;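 also: growth inhibition of human CaR-1 cancer cells, read out with a cell viability assay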
Description: SANGER: Inhibition of human CaR-1 cell growth in a cell viability assay.

[2] = system: DB; format: functional, cell-based; conditions: Homo sapiens
Description: SANGER: Inhibition of human DB cell growth in a cell viability assay.

[3] = system: GCIY; format: functional, cell-based, Homo sapiens; conditions: Homo sapiens, GCIY;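 also: growth inhibition of the human GCIY cell line, read out by a cell viability assay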
Description: SANGER: Inhibition of human GCIY cell growth in a cell viability assay.

[4] = system: IST-MEL1; format: functional, cell-based, Homo sapiens; conditions: Homo sapiens, IST-MEL1;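 also: growth inhibition of the cell line, read out with a cell viability assay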
Description: SANGER: Inhibition of human IST-MEL1 cell growth in a cell viability assay.

[5] = system: J82; format: functional, cell-based; conditions: Homo sapiens;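 also: growth inhibition of J82 cells, read out with a cell viability assay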
Description: SANGER: Inhibition of human J82 cell growth in a cell viability assay.

[6] = system: KINGS-1; format: functional, cell-based, Homo sapiens; conditions: Homo sapiens, KINGS-1;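 also: cell viability assay measuring suppression of KINGS-1 cell growth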
Description: SANGER: Inhibition of human KINGS-1 cell growth in a cell viability assay.

[7] = system: KYSE-410; format: functional, cell-based, Homo sapiens; conditions: Homo sapiens, KYSE-410;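 also: growth inhibition of KYSE-410 cells, measured through a cell viability readout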
Description: SANGER: Inhibition of human KYSE-410 cell growth in a cell viability assay.

[8] = system: KYSE-70 cell line; format: functional, cell-based, Homo sapiens; conditions: Homo sapiens, KYSE-70;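 also: cell viability assay read-out, with IC50 expressing suppression of KYSE-70 cell growth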
Description: SANGER: Inhibition of human KYSE-70 cell growth in a cell viability assay.

[9] = system: L-428; format: functional, cell-based; conditions: Homo sapiens
Description: SANGER: Inhibition of human L-428 cell growth in a cell viability assay.

[10] = system: LB2518-MEL; format: functional, cell-based, Homo sapiens; conditions: Homo sapiens, LB2518-MEL;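 also: growth inhibition of human LB2518-MEL cells, measured with a cell viability assay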
Description: SANGER: Inhibition of human LB2518-MEL cell growth in a cell viability assay.

[11] = system: LCLC-97TM1; format: functional, cell-based, Homo sapiens; conditions: Homo sapiens, LCLC-97TM1;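 also: cell viability assay measuring growth inhibition of human LCLC-97TM1 cells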
Description: SANGER: Inhibition of human LCLC-97TM1 cell growth in a cell viability assay.

[12] = system: LS-1034; format: functional, cell-based, Homo sapiens; conditions: Homo sapiens, LS-1034
Description: SANGER: Inhibition of human LS-1034 cell growth in a cell viability assay.

[13] = system: LU-134-A; format: functional, cell-based; conditions: Homo sapiens
Description: SANGER: Inhibition of human LU-134-A cell growth in a cell viability assay.

[14] = system: Lu-65; format: functional, cell-based; conditions: Homo sapiens;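 also: growth inhibition of Lu-65 cancer cells, read out by a cell viability assay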
Description: SANGER: Inhibition of human LU-65 cell growth in a cell viability assay.

[15] = system: LoVo; format: functional, cell-based; conditions: Homo sapiens;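 also: growth inhibition of human LoVo cells, read out with a cell viability assay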
Description: SANGER: Inhibition of human LoVo cell growth in a cell viability assay.

[16] = system: M14; format: functional, cell-based, Homo sapiens; conditions: Homo sapiens, M14;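 also: growth inhibition of M14 cells, read out with a cell viability assay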
Description: SANGER: Inhibition of human M14 cell growth in a cell viability assay.

[17] = system: MDA-MB-175-VII; format: functional, cell-based, Homo sapiens; conditions: Homo sapiens, MDA-MB-175-VII
[18] = system: MDA-MB-415; format: functional, cell-based; conditions: Homo sapiens
[19] = system: MFH-ino; format: functional, cell-based; conditions: Homo sapiens;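 also: growth inhibition of human MFH-ino cells, read out by a cell viability assay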
Description: SANGER: Inhibition of human MFH-ino cell growth in a cell viability assay.

[20] = system: MKN-1; format: functional, cell-based, Homo sapiens; conditions: Homo sapiens, MKN-1;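 also: growth inhibition of human MKN1 cells, read out by a cell viability measurement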
Description: SANGER: Inhibition of human MKN1 cell growth in a cell viability assay.

[21] = system: MKN-7; format: functional, cell-based, Homo sapiens; conditions: Homo sapiens, MKN-7;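 also: growth inhibition of MKN-7 cells, read out with a cell viability assay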
Description: SANGER: Inhibition of human MKN7 cell growth in a cell viability assay.

[22] = system: MN-60; format: functional, cell-based; conditions: Homo sapiens;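 also: growth inhibition of the MN-60 cell line, determined with a cell viability assay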
Description: SANGER: Inhibition of human MN-60 cell growth in a cell viability assay.

[23] = system: NB10; format: functional, cell-based, Homo sapiens; conditions: Homo sapiens, NB10;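 also: growth inhibition of NB10 cells, read out by a cell viability assay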
Description: SANGER: Inhibition of human NB10 cell growth in a cell viability assay.

[24] = system: NCI-H1838; format: functional, cell-based, Homo sapiens; conditions: Homo sapiens, NCI-H1838;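 also: growth inhibition of NCI-H1838 cells, determined with a cell viability readout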
Description: SANGER: Inhibition of human NCI-H1838 cell growth in a cell viability assay.

[25] = system: NCI-H446; format: functional, cell-based; conditions: Homo sapiens;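 also: growth inhibition of NCI-H446 cells determined by a cell viability assay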
Description: SANGER: Inhibition of human NCI-H446 cell growth in a cell viability assay.

[26] = system: NCI-H526; format: functional, cell-based; conditions: Homo sapiens;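 also: growth inhibition of the human NCI-H526 cell line, measured by a cell viability assay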
Description: SANGER: Inhibition of human NCI-H526 cell growth in a cell viability assay.

[27] = system: PA-1; format: functional, cell-based, Homo sapiens; conditions: Homo sapiens, PA-1;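 also: IC50 for suppression of PA-1 cell proliferation, determined with a cell viability read-out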
Description: SANGER: Inhibition of human PA-1 cell growth in a cell viability assay.

[28] = system: PFSK-1; format: functional, cell-based, Homo sapiens; conditions: Homo sapiens, PFSK-1;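 also: cell viability assay measuring how strongly compounds suppress growth of human PFSK-1 cells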
Description: SANGER: Inhibition of human PFSK-1 cell growth in a cell viability assay.

[29] = system: RERF-LC-MS; format: functional, cell-based, Homo sapiens; conditions: Homo sapiens, RERF-LC-MS;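 also: growth inhibition of human RERF-LC-MS cells, read out by a cell viability assay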
Description: SANGER: Inhibition of human RERF-LC-MS cell growth in a cell viability assay.

[30] = system: RT-112; format: functional, cell-based, Homo sapiens; conditions: Homo sapiens, RT-112
Description: SANGER: Inhibition of human RT-112 cell growth in a cell viability assay.

[31] = system: SCC-15; format: functional, cell-based, Homo sapiens; conditions: Homo sapiens, SCC-15;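 also: growth inhibition of SCC-15 cells, read out with a cell viability assay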
Description: SANGER: Inhibition of human SCC-15 cell growth in a cell viability assay.

[32] = system: SK-N-DZ; format: functional, cell-based, Homo sapiens; conditions: Homo sapiens, SK-N-DZ;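 also: growth inhibition of the cancer cell line, read out through a viability assay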
Description: SANGER: Inhibition of human SK-N-DZ cell growth in a cell viability assay.

[33] = system: SW1088; format: functional, cell-based, Homo sapiens; conditions: Homo sapiens, SW1088;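 also: growth inhibition of human SW1088 cells, read out by a cell viability assay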
Description: SANGER: Inhibition of human SW1088 cell growth in a cell viability assay.

[34] = system: SW948; format: functional, cell-based, Homo sapiens; conditions: Homo sapiens, SW948;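 also: growth inhibition of SW948 cells, read out with a cell viability assay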
Description: SANGER: Inhibition of human SW948 cell growth in a cell viability assay.

[35] = system: SiHa; format: functional, cell-based, Homo sapiens; conditions: Homo sapiens, SiHa;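 also: Viability-based readout of growth inhibition in SiHa cells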
Description: SANGER: Inhibition of human SiHa cell growth in a cell viability assay.

[36] = system: TCC-SUP; format: functional, cell-based, Homo sapiens; conditions: Homo sapiens, TCC-SUP;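 also: growth inhibition of TCC-SUP cells, read out with a cell viability assay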
Description: SANGER: Inhibition of human TCCSUP cell growth in a cell viability assay.

[37] = system: 786-0; format: functional, cell-based, Homo sapiens; conditions: Homo sapiens
Description: SANGER: Inhibition of human 786-0 cell growth in a cell viability assay.

[38] = system: A-427; format: functional, cell-based, Homo sapiens; conditions: Homo sapiens, A-427;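 also: growth inhibition of human A-427 cells, read out by a cell viability assay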
Description: SANGER: Inhibition of human A427 cell growth in a cell viability assay.

[39] = system: A498; format: functional, cell-based, Homo sapiens; conditions: Homo sapiens, A498;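 also: growth inhibition of human A498 cells, read out with a cell viability assay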
Description: SANGER: Inhibition of human A498 cell growth in a cell viability assay.

[40] = system: AN3-CA; format: functional, cell-based; conditions: Homo sapiens;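 also: growth inhibition of human AN3-CA cells measured by a cell viability assay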
Description: SANGER: Inhibition of human AN3-CA cell growth in a cell viability assay.

[41] = system: BB49-HNC; format: functional, cell-based, Homo sapiens; conditions: Homo sapiens, BB49-HNC;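 also: cell viability assay read-out, reported as inhibition of BB49-HNC cell growth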
Description: SANGER: Inhibition of human BB49-HNC cell growth in a cell viability assay.

[42] = system: BB65-RCC; format: functional, cell-based, Homo sapiens; conditions: Homo sapiens, BB65-RCC;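 also: growth inhibition of the cell line, measured with a cell viability assay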
Description: SANGER: Inhibition of human BB65-RCC cell growth in a cell viability assay.

[43] = system: BCPAP; format: functional, cell-based, Homo sapiens; conditions: Homo sapiens, BCPAP;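 also: growth inhibition of BCPAP cells, read out in a cell viability assay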
Description: SANGER: Inhibition of human BCPAP cell growth in a cell viability assay.

[44] = system: BPH-1; format: functional, cell-based, Homo sapiens; conditions: Homo sapiens, BPH-1;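 also: cell viability assay measuring growth inhibition of human BPH-1 cells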
Description: SANGER: Inhibition of human BPH-1 cell growth in a cell viability assay.

[45] = system: BT-474; format: functional, cell-based, Homo sapiens; conditions: Homo sapiens, BT-474
Description: SANGER: Inhibition of human BT-474 cell growth in a cell viability assay.

[46] = system: C32; format: functional, cell-based, Homo sapiens; conditions: Homo sapiens, C32;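 also: cell viability assay, with IC50 reflecting inhibition of C32 cell growth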
Description: SANGER: Inhibition of human C32 cell growth in a cell viability assay.

[47] = system: C3A; format: functional, cell-based, Homo sapiens; conditions: Homo sapiens, C3A;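 also: growth inhibition of C3A human cells, quantified with a cell viability readout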
Description: SANGER: Inhibition of human C3A cell growth in a cell viability assay.

[48] = system: CAL-120; format: functional, cell-based, Homo sapiens; conditions: Homo sapiens, CAL-120;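 also: cell growth inhibition, read out as cell viability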
Description: SANGER: Inhibition of human CAL-120 cell growth in a cell viability assay.

[49] = system: U-118-MG; format: functional, cell-based, Homo sapiens; conditions: Homo sapiens, U-118-MG
Description: SANGER: Inhibition of human U-118-MG cell growth in a cell viability assay.

[50] = system: U-266; format: functional, cell-based; conditions: Homo sapiens
Description: SANGER: Inhibition of human U-266 cell growth in a cell viability assay.

[51] = system: UO-31; format: functional, cell-based; conditions: Homo sapiens;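 also: cell viability assay measuring inhibition of cell growth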
Description: SANGER: Inhibition of human U031 cell growth in a cell viability assay.

[52] = system: CHP-212; format: functional, cell-based, Homo sapiens; conditions: Homo sapiens, CHP-212
Description: SANGER: Inhibition of human CHP-212 cell growth in a cell viability assay.

SMILES: Nc1ccn([C@@H]2O[C@H](CO)[C@@H](O)[C@@H]2O)c(=O)n1 [CYTARABINE]
- pIC50 [1]: < 5.70
- pIC50 [2]: 6.61
- pIC50 [3]: < 5.70
- pIC50 [4]: 6.42
- pIC50 [5]: 5.79
- pIC50 [6]: < 5.70
- pIC50 [7]: < 5.70
- pIC50 [8]: 5.73
- pIC50 [9]: < 5.70
- pIC50 [10]: < 5.70
- pIC50 [11]: 6.32
- pIC50 [12]: < 5.70
- pIC50 [13]: < 5.70
- pIC50 [14]: < 5.70
- pIC50 [15]: 6.17
- pIC50 [16]: 6.20
- pIC50 [17]: 5.70
- pIC50 [18]: < 5.70
- pIC50 [19]: < 5.70
- pIC50 [20]: 5.76
- pIC50 [21]: < 5.70
- pIC50 [22]: 6.03
- pIC50 [23]: 6.73
- pIC50 [24]: < 5.70
- pIC50 [25]: < 5.70
- pIC50 [26]: < 5.70
- pIC50 [27]: 6.73
- pIC50 [28]: < 5.70
- pIC50 [29]: 5.75
- pIC50 [30]: 6.30
- pIC50 [31]: 5.97
- pIC50 [32]: 5.97
- pIC50 [33]: < 5.70
- pIC50 [34]: < 5.70
- pIC50 [35]: 6.07
- pIC50 [36]: < 5.70
- pIC50 [37]: 6.17
- pIC50 [38]: 7.46
- pIC50 [39]: < 5.70
- pIC50 [40]: 5.74
- pIC50 [41]: < 5.70
- pIC50 [42]: 6.96
- pIC50 [43]: 6.30
- pIC50 [44]: < 5.70
- pIC50 [45]: < 5.70
- pIC50 [46]: < 5.70
- pIC50 [47]: < 5.70
- pIC50 [48]: < 5.70
- pIC50 [49]: < 5.70
- pIC50 [50]: < 5.70
- pIC50 [51]: 5.90
- pIC50 [52]: 7.48

SMILES: COC(=O)CNC(=O)C(=O)OC
- pIC50 [1]: 3.66
- pIC50 [2]: 4.28
- pIC50 [3]: 3.96
- pIC50 [4]: 3.24
- pIC50 [5]: 4.24
- pIC50 [6]: 3.23
- pIC50 [7]: 4.68
- pIC50 [8]: 3.26
- pIC50 [9]: 3.16
- pIC50 [10]: 3.63
- pIC50 [11]: 3.70
- pIC50 [12]: 2.59
- pIC50 [13]: < 2.40
- pIC50 [14]: 2.63
- pIC50 [15]: 3.02
- pIC50 [16]: 2.73
- pIC50 [17]: < 2.40
- pIC50 [18]: 2.53
- pIC50 [19]: 3.19
- pIC50 [20]: 2.66
- pIC50 [21]: < 2.40
- pIC50 [22]: 3.83
- pIC50 [23]: 3.28
- pIC50 [24]: < 2.40
- pIC50 [25]: 3.19
- pIC50 [26]: 3.27
- pIC50 [27]: 3.92
- pIC50 [28]: 3.56
- pIC50 [29]: 2.78
- pIC50 [30]: 3.75
- pIC50 [31]: 2.99
- pIC50 [32]: 2.51
- pIC50 [33]: 2.57
- pIC50 [34]: 2.58
- pIC50 [35]: 2.93
- pIC50 [36]: 3.36
- pIC50 [37]: < 2.40
- pIC50 [38]: 3.19
- pIC50 [39]: 3.18
- pIC50 [40]: 3.68
- pIC50 [41]: 3.21
- pIC50 [42]: 2.62
- pIC50 [43]: 3.68
- pIC50 [44]: 3.56
- pIC50 [45]: < 2.40
- pIC50 [46]: < 2.40
- pIC50 [47]: 3.80
- pIC50 [48]: 3.09
- pIC50 [49]: 3.11
- pIC50 [50]: < 2.40
- pIC50 [51]: 3.47
- pIC50 [52]: 3.74

Reference: ChEMBL document CHEMBL1201861, “Genomics of Drug Sensitity in Cancer screening data, Wellcome Trust Sanger Institute”
